Experimental data reported in ChEMBL document CHEMBL3399920, “Microwave-assisted synthesis, characterization and cytotoxic studies of novel estrogen receptor α ligands towards human breast cancer cells” (Bioorg Med Chem Lett, 2015).

Key:
MCF7 = experiment: Cytotoxicity against human MCF7 cells after 48 hrs by MTT assay; assay type: functional, cell-based; settings: MCF7, 48 h
HepG2 = experiment: Cytotoxicity against human HepG2 cells after 48 hrs by MTT assay; assay type: functional, cell-based; settings: HepG2, 48 h
MDA-MB-231 = experiment: Cytotoxicity against human MDA-MB-231 cells after 48 hrs by MTT assay; assay type: functional, cell-based; settings: MDA-MB-231, 48 h
[1] = Cytotoxicity against human MCF10A cells after 72 hrs by MTT assay; assay type: cell-based; settings: MCF-10A
BT-549 = experiment: Cytotoxicity against human BT549 cells after 48 hrs by MTT assay; assay type: functional, cell-based; settings: BT-549, 48 h

Row | Structure (SMILES) | IC50 (MCF7) | IC50 (HepG2) | IC50 (MDA-MB-231) | IC50 [1] | IC50 (BT-549)
1 | Oc1ccccc1-c1ccc2ccccc2n1 | > 50 µM | > 50 µM | – | – | –
2 | Cc1ccc2nc(-c3ccccc3Br)ccc2c1 | > 50 µM | > 50 µM | – | – | –
3 | Clc1ccc(-c2ccc3ccccc3n2)c(Cl)c1 | 25 µM | 31.6 µM | > 100 µM | > 100 µM | > 100 µM
4 | Nc1ccc(-c2ccc3ccc(Cl)cc3n2)cc1 | 6 µM | 11 µM | > 100 µM | > 100 µM | > 100 µM
5 | Cc1ccc2nc(-c3ccc(Cl)cc3Cl)ccc2c1 | > 50 µM | > 50 µM | – | – | –
6 | Brc1ccc(-c2ccc3ccccc3n2)cc1 | 12 µM | 9 µM | > 100 µM | 60.3 µM | > 100 µM
7 | Cc1ccc2nc(-c3ccc(N)cc3)ccc2c1 | 34 µM | 41 µM | – | – | –
8 | Cc1ccc2nc(-c3cc(O)ccc3O)ccc2c1 | 28 µM | 19 µM | – | – | –
9 | Cc1ccc2nc(-c3cccc([N+](=O)[O-])c3)ccc2c1 | 23 µM | 37 µM | > 100 µM | > 100 µM | > 100 µM
10 | Cc1ccc2nc(-c3ccccc3)ccc2c1 | > 50 µM | > 50 µM | – | – | –
